From patent US20070128217A1 (priority 2003, published 2007)

What was measured:
[1] = test system: antibodies in sera from SARS patients (sera 1a, 1b, 2, 6, 37, 62, London, SARS-yellow, SARS-green); format: binding, human; parameters: Binding of serum 6 to linear peptides of protein X1 of SARS-CoV Urbani / Binding of serum 37 to linear peptides of protein X1 of SARS-CoV Urbani / Binding of serum 6 to looped/cyclic peptide (PEPSCAN-ELISA) / Binding of serum 37 to looped/cyclic peptide (PEPSCAN-ELISA) / Binding of serum 37 to looped/cyclic peptides of protein X1 of SARS-CoV Urbani / Binding of serum 6 to linear peptides of protein X2 / Binding of serum 37 to linear peptides of protein X2 / Binding of serum 37 to looped/cyclic peptides of protein X2 of SARS-CoV Urbani / Binding of serum 6 to linear peptides of protein M of SARS-CoV Urbani / Binding of serum 37 to linear peptides of protein M of SARS-CoV Urbani / Binding of serum 6 to looped/cyclic peptides of protein M of SARS-CoV Urbani / Binding of serum 37 to looped/cyclic peptides of protein M of SARS-CoV Urbani / Binding of serum 6 to linear peptides of protein X3 of SARS-CoV Urbani / Binding of serum 37 to linear peptides of protein X3 of SARS-CoV Urbani / Binding of serum 37 to looped/cyclic peptides of protein X3 of SARS-CoV Urbani / Binding of serum 6 to linear peptides of protein X4 of SARS-CoV Urbani / Binding of serum 37 to linear peptides of protein X4 of SARS-CoV Urbani / Binding of serum 37 to looped/cyclic peptides of protein X4 of SARS-CoV Urbani / Binding of serum 6 to linear peptides of protein X5 of SARS-CoV Urbani / Binding of serum 37 to linear peptides of protein X5 of SARS-CoV Urbani / Binding of serum 37 to looped/cyclic peptides of protein X5 of SARS-CoV Urbani / Binding of serum 6 to linear peptides of protein N of SARS-CoV Urbani / Binding of serum 37 to linear peptides of protein N of SARS-CoV Urbani / Binding of serum 6 to linear peptide (PEPSCAN-ELISA) / Binding of serum 1a to looped/cyclic peptides of protein N of SARS-CoV Urbani / Binding of serum 1b to looped/cyclic peptides of protein N of SARS-CoV Urbani / Binding of serum 2 to looped/cyclic peptides of protein N of SARS-CoV Urbani / Binding of serum 6 to looped/cyclic peptides of protein N of SARS-CoV Urbani / Binding of serum 37 to looped/cyclic peptides of protein N of SARS-CoV Urbani / Binding of serum 62 to looped/cyclic peptides of protein N of SARS-CoV Urbani / Binding of serum London to looped/cyclic peptides of protein N of SARS-CoV Urbani / Binding of serum SARS-green to looped/cyclic peptides of protein N of SARS-CoV Urbani: unit not given here
[2] = test system: rabbit serum obtained by immunizing a rabbit with the SARS-CoV strain Frankfurt 1; format: binding; parameters: Binding of a rabbit serum to linear peptides / Binding of a rabbit serum to looped peptides / Rabbit serum linear peptides / Rabbit serum looped peptides / Binding of a rabbit serum to linear peptides of protein N of SARS-CoV Urbani (Rabbit serum linear peptides) / Binding of a rabbit serum to looped/cyclic peptides of protein N of SARS-CoV Urbani (Rabbit serum looped peptides): unit not given here
[3] = test system: control sera (pooled serum of ten healthy LUMC hospital workers; commercial negative donor pooled serum from the Dutch bloodbank); format: binding, human; parameters: Binding of Control serum LUMC to linear peptides / Binding of Control serum Blood-bank to linear peptides / Binding of Control serum LUMC to looped peptides / Binding of Control Serum Blood-Bank to Looped peptides / Binding of Control serum LUMC to linear peptides of the protein M of SARS-CoV Urbani / Binding of Control serum Blood-bank to linear peptides of the protein M of SARS-CoV Urbani / Binding of Control serum LUMC to looped peptides of the protein M of SARS-CoV Urbani / Binding of Control Serum Blood-Bank to Looped peptides of the protein M of SARS-CoV Urbani: unit not given here

## ACIVGLMWLSYFVAS
[1]
  Binding of serum 1a to linear peptides of protein M of SARS-CoV Urbani: 0.7
  Binding of serum 1a to looped/cyclic peptides of protein M of SARS-CoV Urbani: 0.6
  Binding of serum 1b to linear peptides of protein M of SARS-CoV Urbani: 0.5
  Binding of serum 1b to looped/cyclic peptides of protein M of SARS-CoV Urbani: 0.3
  Binding of serum 2 to linear peptides of protein M of SARS-CoV Urbani: 0.5
  Binding of serum 2 to looped/cyclic peptides of protein M of SARS-CoV Urbani: 0.5
  Binding of serum 6 to linear peptides of protein M of SARS-CoV Urbani: 0.4
  Binding of serum 6 to looped/cyclic peptides of protein M of SARS-CoV Urbani: 0.6
  Binding of serum 37 to linear peptides of protein M of SARS-CoV Urbani: 0.6
  Binding of serum 37 to looped/cyclic peptides of protein M of SARS-CoV Urbani: 0.5
  Binding of serum 62 to linear peptides of protein M of SARS-CoV Urbani: 0.7
  Binding of serum 62 to looped/cyclic peptides of protein M of SARS-CoV Urbani: 0.4
  Binding of serum London to linear peptides of protein M of SARS-CoV Urbani: 0.3
  Binding of serum London to looped/cyclic peptides of protein M of SARS-CoV Urbani: 0.2
  Binding of serum SARS-green to linear peptides of protein M of SARS-CoV Urbani: 0.2
  Binding of serum SARS-green to looped/cyclic peptides of protein M of SARS-CoV Urbani: 0.2
  Binding of serum SARS-yellow to linear peptides of protein M of SARS-CoV Urbani: 0.1
  Binding of serum SARS-yellow to looped/cyclic peptides of protein M of SARS-CoV Urbani: 0.4
[2]
  Rabbit serum linear peptides: 0.3
  Rabbit serum looped peptides: 0.8
[3]
  Binding of Control Serum Blood-Bank to Looped peptides of the protein M of SARS-CoV Urbani: 0.6
  Binding of Control serum Blood-bank to linear peptides of the protein M of SARS-CoV Urbani: 0.6
  Binding of Control serum LUMC to linear peptides of the protein M of SARS-CoV Urbani: 0.3
  Binding of Control serum LUMC to looped peptides of the protein M of SARS-CoV Urbani: 0.5

## ACRIIMRCWLCWKCK
[1]
  Recognition of the peptide by sera of SARS-CoV infected individuals, and form (linear, looped/cyclic) in which it is recognized: recognized in linear form
[2]
  Recognition of the peptide by the rabbit serum: recognized
[3]
  Binding of Control Serum Blood-Bank to Looped peptides: 0.1
  Binding of Control serum Blood-bank to linear peptides: 1.0
  Binding of Control serum LUMC to linear peptides: 0.8
  Binding of Control serum LUMC to looped peptides: 0.3

## ADGTRHTYQLRARSV
[1]
  Binding of serum 1a to linear peptides of protein X4 of SARS-CoV Urbani: 0.7
  Binding of serum 1a to looped/cyclic peptides of protein X4 of SARS-CoV Urbani: 0.7
  Binding of serum 1b to linear peptides of protein X4 of SARS-CoV Urbani: 0.6
  Binding of serum 1b to looped/cyclic peptides of protein X4 of SARS-CoV Urbani: 0.4
  Binding of serum 2 to linear peptides of protein X4 of SARS-CoV Urbani: 0.6
  Binding of serum 2 to looped/cyclic peptides of protein X4 of SARS-CoV Urbani: 0.6
  Binding of serum 6 to linear peptides of protein X4 of SARS-CoV Urbani: 0.5
  Binding of serum 6 to looped/cyclic peptides of protein X4 of SARS-CoV Urbani: 0.7
  Binding of serum 37 to linear peptides of protein X4 of SARS-CoV Urbani: 0.7
  Binding of serum 37 to looped/cyclic peptides of protein X4 of SARS-CoV Urbani: 0.7
  Binding of serum 62 to linear peptides of protein X4 of SARS-CoV Urbani: 0.7
  Binding of serum 62 to looped/cyclic peptides of protein X4 of SARS-CoV Urbani: 0.6
  Binding of serum London to linear peptides of protein X4 of SARS-CoV Urbani: 0.7
  Binding of serum London to looped/cyclic peptides of protein X4 of SARS-CoV Urbani: 0.3
  Binding of serum SARS-green to linear peptides of protein X4 of SARS-CoV Urbani: 0.6
  Binding of serum SARS-green to looped/cyclic peptides of protein X4 of SARS-CoV Urbani: 0.5
  Binding of serum SARS-yellow to linear peptides of protein X4 of SARS-CoV Urbani: 0.7
  Binding of serum SARS-yellow to looped/cyclic peptides of protein X4 of SARS-CoV Urbani: 0.6
[2]
  Recognition of the peptide by the rabbit serum: recognized
[3]
  Binding of Control Serum Blood-Bank to Looped peptides: 0.6
  Binding of Control serum Blood-bank to linear peptides: 0.6
  Binding of Control serum LUMC to linear peptides: 0.6
  Binding of Control serum LUMC to looped peptides: 0.6
